Source: US9879058B2, “Use of compounds that selectively modulate astrocytic release of substances through hemichannels of connexins and pannexins, without influencing gap junctions, for the treatment of psychiatric disorders” (Universidad Andres Bello, priority 2012, dated 2018)
No end group written: not given here.

Tested on: hippocampal primary neuronal cultures
Assay: ATP and glutamate release in neuronal cultures
Format: cell-based, rat
Conditions: peptide 1 mM; neuronal cultures without astrocytes
Experimental: G.2. Neuronal cultures: Hippocampal neurons were obtained from hippocampus of E18 rats. Briefly, hippocampi were dissected as mentioned above for astrocyte cultures. Cells were seeded directly on poly-L-ornithine coated coverslips (1×10^5 cells/coverslip) in Neurobasal medium supplemented with penicillin (5 U/ml), streptomycin (5 μg/ml), B27 supplement and glutamax. Partial medium changes (¼) were done twice a week. H. Dye uptake: For single image visualization of dye uptake, astrocytes were bathed in recording solution [in mM: NaCl (148), KCl (5), CaCl2 (1.8), MgCl2 (1), glucose (5), HEPES (5), pH=7.4] containing 5 μM ethidium (Etd) (Sigma-Aldrich, St-Louis, Mo.), and fluorescence intensity was recorded for 10 min in selected cells (ROI, regions of interest). […] Metafluor software (version 6.2R5, Universal Imaging Co., Downingtown, Pa., USA) was used for off-line image analysis and fluorescence quantification.
I. Measurement of ATP and glutamate release induced by TAT-Cx43L2: Neurons were plated in multi well culture trays (10^6 cells/well/0.5 ml) and 48 h later were used for experiments. Extracellular ATP was measured by luciferin/luciferase bioluminescence assay kit (Sigma-Aldrich, St. Louis, Mo., USA). […]

YGRKKRRQRRRDGANVDMHLKQIEIKKFKYGIEEHGK [TAT-Cx43L2, synthetic cell-permeable peptide corresponding to the Cx43L2 region (aa 119-144) of the cytoplasmic loop of Cx43]
ATP release in neuronal cultures: did not affect | glutamate release in neuronal cultures: did not affect
